Earlier results as cited in patent publication US10232037B2, “Supramolecular hydrogel of fMLF-based molecules and use thereof” (BRANDEIS UNIVERSITY, priority 2014, dated 2019).

Test system: neutrophils
Settings: aqueous solution, literature

In the case of `CSCC[C@H](NC=O)C(=O)N[C@@H](CC(C)C)C(=O)N[C@@H](Cc1ccccc1)C(=O)O` [fMLF, N-formyl-L-methionyl-L-leucyl-L-phenylalanine], the “duration of neutrophil accumulation effect” value is listed as 2 to 6 h.
